In the supplement of paper PMC10307832:

Columns and labels:
Experiment in all cases: relative viability (nuclei count vs DMSO), 5 days (fraction); higher = more cells survive
[1] = compound: C=CC(=O)Nc1cc(-n2c(=O)ccc3cnc4ccc(-c5ccc(NS(C)(=O)=O)cc5)cc4c32)ccc1C [BMX-IN-1]
Outline: (§1)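 Viability was read as treated-well nuclei divided by vehicle-well nuclei, using the median across plates. Lung cancer cell lines in 1536-well plates were kept overnight at 37 °C, pinned with five √10-spaced library-drug doses, and after 5 days were Hoechst-stained, imaged at 4× and counted in MetaXpress. Plates passed only with control CV below 25% and at least one doubling.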

[2] = compound: C=CC(=O)N1CCC[C@@H](n2nc(-c3ccc(Oc4ccccc4)cc3)c3c(N)ncnc32)C1 [Ibrutinib]
Outline: as §1

[3] = compound: C=CCc1cccc(/C=N/NC(=O)CN2CCN(Cc3ccccc3)CC2)c1O [PAC-1]
Outline: as §1

[4] = compound: C=CC(=O)N1CCC[C@@H](n2nc(-c3ccc(Oc4ccccc4)cc3)c3c(N)ncnc32)C1 [Ibrutinib] + Cc1nc(NC(=O)N2CCC[C@H]2C(N)=O)sc1-c1ccnc(C(C)(C)C(F)(F)F)c1 [Alpelisib] (partner 2 µM)
Outline: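 Cells from lung cancer lines were seeded into 1536-well plates and, one day later, dosed by pin tool. Treatments were either a single drug or a fixed dose of an anchor drug with five library-drug doses (not always all listed) in √10 steps. After 5 days, nuclei were stained in a one-step fixation (final 0.05% Triton X-100, 1% formaldehyde, 1 ug/ml Hoechst) and counted on 4× images, and relative viability is the treated-to-vehicle nuclei ratio, as the median of duplicate plates.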

Row | Cell Line | relative viability ([1]; 0.02 µM) | relative viability ([1]; 0.2 µM) | relative viability ([1]; 0.6325 µM) | relative viability ([1]; 2 µM) | relative viability ([2]; 0.005 µM) | relative viability ([2]; 0.01581 µM) | relative viability ([2]; 0.05 µM) | relative viability ([2]; 0.1581 µM) | relative viability ([2]; 0.5 µM) | relative viability ([3]; 0.02 µM) | relative viability ([3]; 0.06325 µM) | relative viability ([3]; 0.2 µM) | relative viability ([3]; 2 µM) | relative viability ([4]; first compound 0.005 µM) | relative viability ([4]; first compound 0.01581 µM) | relative viability ([4]; first compound 0.05 µM) | relative viability ([4]; first compound 0.1581 µM) | relative viability ([4]; first compound 0.5 µM)
1 | NCI-H661 | 0.967 | 1.03 | 1.01 | 0.933 | 0.95 | 0.957 | 0.868 | 0.96 | 0.601 | 0.977 | 0.981 | 0.965 | 0.959 | 0.467 | 0.68 | 0.358 | 0.524 | 0.216
2 | NCI-H1703 | 1.1 | 0.914 | 0.862 | 0.805 |  | 0.864 | 0.916 | 0.879 | 0.769 | 0.993 | 0.903 | 0.955 | 0.962 | 0.273 | 0.362 | 0.362 | 0.397 | 0.243
3 | NCI-H2342 | 1.04 | 1.03 | 1.06 | 0.939 | 0.655 | 0.875 | 0.888 | 0.842 | 0.823 | 1.09 | 0.91 | 0.872 | 1.15 |  |  |  |  | 
4 | NCI-H838 | 1.25 | 0.957 | 1.02 | 0.989 | 0.923 | 0.893 | 0.986 | 0.938 | 0.948 | 0.96 | 0.989 | 0.9 | 0.983 | 0.836 | 1 | 1.14 | 1.01 | 0.987
5 | ABC-1 | 1.05 | 1.02 | 1.01 | 1.05 | 0.907 | 0.761 | 0.887 | 0.744 | 0.94 | 0.992 | 0.952 | 0.975 | 0.887 | 0.922 | 0.813 | 1.05 | 1.17 | 0.983
6 | NCI-H441 | 1.19 | 1.31 | 1.28 | 1.17 | 1.11 | 0.947 | 1.26 | 1.16 | 1.13 | 1.03 | 1.09 | 0.997 | 1.04 | 0.908 | 0.54 | 0.868 | 0.871 | 0.711
7 | NCI-H2126 | 1.09 | 1.05 | 1.08 | 1.02 | 0.68 | 0.969 | 0.972 | 0.9 | 0.887 | 0.938 | 0.948 | 1.02 | 1.06 |  | 0.7 | 0.769 | 0.763 | 0.606
8 | NCI-H1651 | 1.11 | 1.08 | 1.07 | 0.991 | 0.931 | 0.93 | 0.913 | 0.923 | 1.03 | 0.978 | 0.967 | 0.943 | 0.983 | 0.903 | 0.938 | 0.995 | 0.935 | 1.1
9 | NCI-H1734 | 1.06 | 1.06 | 1.11 | 1.02 | 0.849 | 0.922 | 0.952 | 1.03 | 0.999 | 0.936 | 1.01 | 0.942 | 1.02 | 0.557 | 0.583 | 0.705 | 0.669 | 0.654
10 | SW 900 | 0.971 | 0.886 | 0.911 | 1.09 | 0.578 | 0.693 | 0.873 | 0.708 | 0.845 | 0.766 | 1.02 | 0.815 | 0.792 |  |  |  |  | 
